Experimental findings from patent US9902739B2, “Small molecule inhibitors of G protein coupled receptor 6 kinases polypeptides” (Mayo Foundation for Medical Education and Research, priority 2014, dated 2018) are described below.

For this assay, the target named is T1, GRK6, recombinant full-length GST-tagged human protein (Homo sapiens, UniProt P43250).
T1 construct: Enzyme: 20 nM GRK6, recombinant full-length GST-tagged human protein; GST
Nature of the assay: GRK6 assay, IC50 determination (8-point concentration-response). In kind it is biochemical. The method in brief: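 Full-length GST-tagged human GRK6 (20 nM) with 1 μM Peptide 216 in 50 mM TRIS-HCl pH 7.5, 5 mM MgCl2, 2 mM DTT, 0.01% Triton X-100, 1% DMSO. IC50 from 8-point singlicate concentration-response, top 60 μM, 3-fold steps; compounds inhibiting >50% at all concentrations retested at lower range.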

Setting [1] is: Series 1 (Table 11), 20 nM GRK6, ATP 12 μM (Km), Peptide 216 1 μM, incubation 7 h.

T1 sequence (P43250 whole entry): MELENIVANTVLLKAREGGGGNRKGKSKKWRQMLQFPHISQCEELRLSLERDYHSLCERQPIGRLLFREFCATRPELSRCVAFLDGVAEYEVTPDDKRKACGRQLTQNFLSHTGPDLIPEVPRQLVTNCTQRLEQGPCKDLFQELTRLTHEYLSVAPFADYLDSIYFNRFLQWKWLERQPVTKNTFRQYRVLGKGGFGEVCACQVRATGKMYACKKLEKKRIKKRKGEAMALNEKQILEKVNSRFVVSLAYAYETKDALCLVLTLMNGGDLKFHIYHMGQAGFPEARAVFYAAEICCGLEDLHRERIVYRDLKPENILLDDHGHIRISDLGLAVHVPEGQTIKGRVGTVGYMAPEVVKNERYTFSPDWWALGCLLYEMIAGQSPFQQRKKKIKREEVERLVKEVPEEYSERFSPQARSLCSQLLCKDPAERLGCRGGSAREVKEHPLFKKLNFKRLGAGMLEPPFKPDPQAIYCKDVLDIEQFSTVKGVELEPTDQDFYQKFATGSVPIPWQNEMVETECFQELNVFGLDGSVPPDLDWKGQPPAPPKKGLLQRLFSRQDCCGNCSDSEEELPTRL

The term IC50 denotes the concentration at which inhibition is half-maximal. As for `O=C(O)CSc1nnc(-c2ccc(-c3cnn(CCN4CCOCC4)c3)o2)[nH]1` [Compound 1-100], under setting [1], the concentration for half-maximal inhibition (IC50) amounted to 6.2 µM.
In the case of `CC(C)CCn1ccc(-c2ccc(-c3nnc(SCC(=O)O)[nH]3)o2)n1` [Compound 1-78], the IC50 under setting [1] is 1.17 µM.
`CNS(=O)(=O)c1ccc(-c2ccc(-c3nnc(SCc4nnn[nH]4)[nH]3)o2)cc1` [Compound 3-22]: the IC50 (Series 3 (Table 13), conditions as Example 18) was found to be 3.78 µM.
`N#Cc1ccc(COc2cccc(-c3ccc(-c4nnc(SCC(=O)O)[nH]4)o3)c2)cc1` [Compound 1-7]: the IC50 under setting [1] stood at 0.167 µM.
The same measure, in the same setting: the same measure for `COc1ccc(-c2ccc(-c3nnc(SCC(=O)O)[nH]3)o2)cn1` [Compound 1-88]: 1.82 µM.
Same read-out and setting: as for `O=C(O)CSc1nnc(-c2ccc(-c3cccc(OCc4ccc(Cl)c(Cl)c4)c3)o2)[nH]1` [Compound 1-40], the figure is 0.367 µM.
As to `CCc1nc(C)c(-c2nnc(SCC(=O)O)[nH]2)[nH]1` [Compound 4-36], where the note is “Series 4 (Table 14), conditions as Example 18”, the IC50 came to 82.7 µM.
